Reference: patent US8952024B2, “Herbicidal pyrimidone derivatives” (E I du Pont de Nemours and Company, priority 2009, dated 2015)

What was measured:
Assay in all cases: Test C plant response
Format in all cases: in vivo
Details in all cases: Postemergence, scale 0 to 100
[1] = tested on: green foxtail (Setaria viridis)
Outline: (§1)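 Formulation: non-phytotoxic solvent + surfactant. Controlled growth environment, 14 d. Visual rating vs controls, 0 = no effect, 100 = complete control; dash = no result.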

[2] = tested on: oilseed rape (Brassica napus)
Outline: as §1

[3] = tested on: chickweed (common chickweed, Stellaria media)
Outline: as §1

[4] = tested on: pigweed (Amaranthus retroflexus)
Outline: as §1

[5] = tested on: field poppy (Papaver rhoeas)
Outline: as §1

[6] = tested on: bluegrass (annual bluegrass, Poa annua)
Outline: as §1

[7] = tested on: canarygrass (Phalaris minor)
Outline: as §1

[8] = tested on: field violet (Viola arvensis)
Outline: as §1

[9] = tested on: blackgrass (Alopecurus myosuroides)
Outline: as §1

[10] = tested on: wild radish (Raphanus raphanistrum)
Outline: as §1

kochia (Kochia scoparia) = tested on: kochia (Kochia scoparia)
Outline: as §1

[11] = tested on: wild mustard (Sinapis arvensis)
Outline: as §1

[12] = tested on: galium (catchweed bedstraw, Galium aparine)
Outline: as §1

[13] = tested on: winter barley (Hordeum vulgare)
Outline: as §1

wild oat (Avena fatua) = tested on: wild oat (Avena fatua)
Outline: as §1

[14] = tested on: spring barley (Hordeum vulgare)
Outline: as §1

[15] = tested on: bromegrass (downy bromegrass, Bromus tectorum)
Outline: as §1

[16] = tested on: deadnettle (henbit deadnettle, Lamium amplexicaule)
Outline: as §1

[17] = tested on: Russian thistle (Salsola iberica)
Outline: as §1

[18] = tested on: Italian ryegrass (Lolium multiflorum)
Outline: as §1

Cc1cc(C)cc(-n2c(-c3ccccc3)ncc(C(=O)C3=C(O)CCCC3=O)c2=O)c1 [Compound 33]
Plant response rating: Foxtail, Green ([1]; 31 g ai/ha): 95
Plant response rating: Foxtail, Green ([1]; 16 g ai/ha): 80
Plant response rating: Foxtail, Green ([1]; 62 g ai/ha): 95
Plant response rating: Foxtail, Green ([1]; 125 g ai/ha): 95
Plant response rating: Oilseed Rape ([2]; 31 g ai/ha): 98
Plant response rating: Oilseed Rape ([2]; 16 g ai/ha): 90
Plant response rating: Oilseed Rape ([2]; 62 g ai/ha): 100
Plant response rating: Oilseed Rape ([2]; 125 g ai/ha): 100
Plant response rating: Chickweed ([3]; 31 g ai/ha): 90
Plant response rating: Chickweed ([3]; 16 g ai/ha): 90
Plant response rating: Chickweed ([3]; 62 g ai/ha): 98
Plant response rating: Chickweed ([3]; 125 g ai/ha): 100
Plant response rating: Pigweed ([4]; 31 g ai/ha): 95
Plant response rating: Pigweed ([4]; 16 g ai/ha): 75
Plant response rating: Pigweed ([4]; 62 g ai/ha): 95
Plant response rating: Pigweed ([4]; 125 g ai/ha): 98
Plant response rating: Field Poppy ([5]; 31 g ai/ha): 80
Plant response rating: Field Poppy ([5]; 16 g ai/ha): 80
Plant response rating: Field Poppy ([5]; 62 g ai/ha): 90
Plant response rating: Field Poppy ([5]; 125 g ai/ha): 98
Plant response rating: Bluegrass ([6]; 31 g ai/ha): 0
Plant response rating: Bluegrass ([6]; 16 g ai/ha): 0
Plant response rating: Bluegrass ([6]; 62 g ai/ha): 15
Plant response rating: Bluegrass ([6]; 125 g ai/ha): 40
Plant response rating: Canarygrass ([7]; 31 g ai/ha): 0
Plant response rating: Canarygrass ([7]; 16 g ai/ha): 0
Plant response rating: Canarygrass ([7]; 62 g ai/ha): 5
Plant response rating: Canarygrass ([7]; 125 g ai/ha): 5
Plant response rating: Field Violet ([8]; 31 g ai/ha): 90
Plant response rating: Field Violet ([8]; 16 g ai/ha): 65
Plant response rating: Field Violet ([8]; 62 g ai/ha): 95
Plant response rating: Field Violet ([8]; 125 g ai/ha): 95
Plant response rating: Blackgrass ([9]; 31 g ai/ha): 5
Plant response rating: Blackgrass ([9]; 16 g ai/ha): 0
Plant response rating: Blackgrass ([9]; 62 g ai/ha): 35
Plant response rating: Blackgrass ([9]; 125 g ai/ha): 35
Plant response rating: Radish, Wild ([10]; 31 g ai/ha): 95
Plant response rating: Radish, Wild ([10]; 16 g ai/ha): 90
Plant response rating: Radish, Wild ([10]; 62 g ai/ha): 95
Plant response rating: Radish, Wild ([10]; 125 g ai/ha): 98
Plant response rating: Kochia (kochia (Kochia scoparia); 31 g ai/ha): 50
Plant response rating: Kochia (kochia (Kochia scoparia); 16 g ai/ha): 35
Plant response rating: Kochia (kochia (Kochia scoparia); 62 g ai/ha): 60
Plant response rating: Kochia (kochia (Kochia scoparia); 125 g ai/ha): 70
Plant response rating: Mustard, Wild ([11]; 31 g ai/ha): 98
Plant response rating: Mustard, Wild ([11]; 16 g ai/ha): 98
Plant response rating: Mustard, Wild ([11]; 62 g ai/ha): 98
Plant response rating: Mustard, Wild ([11]; 125 g ai/ha): 100
Plant response rating: Galium ([12]; 31 g ai/ha): 40
Plant response rating: Galium ([12]; 16 g ai/ha): 35
Plant response rating: Galium ([12]; 62 g ai/ha): 50
Plant response rating: Galium ([12]; 125 g ai/ha): 60
Plant response rating: Barley, Winter ([13]; 31 g ai/ha): 0
Plant response rating: Barley, Winter ([13]; 16 g ai/ha): 0
Plant response rating: Barley, Winter ([13]; 62 g ai/ha): 0
Plant response rating: Barley, Winter ([13]; 125 g ai/ha): 5
Plant response rating: Oat, Wild (wild oat (Avena fatua); 31 g ai/ha): 0
Plant response rating: Oat, Wild (wild oat (Avena fatua); 16 g ai/ha): 0
Plant response rating: Oat, Wild (wild oat (Avena fatua); 62 g ai/ha): 5
Plant response rating: Oat, Wild (wild oat (Avena fatua); 125 g ai/ha): 10
Plant response rating: Barley, Spring ([14]; 31 g ai/ha): 0
Plant response rating: Barley, Spring ([14]; 16 g ai/ha): 0
Plant response rating: Barley, Spring ([14]; 62 g ai/ha): 0
Plant response rating: Barley, Spring ([14]; 125 g ai/ha): 0
Plant response rating: Bromegrass, Downy ([15]; 31 g ai/ha): 10
Plant response rating: Bromegrass, Downy ([15]; 16 g ai/ha): 0
Plant response rating: Bromegrass, Downy ([15]; 62 g ai/ha): 15
Plant response rating: Bromegrass, Downy ([15]; 125 g ai/ha): 20
Plant response rating: Deadnettle ([16]; 31 g ai/ha): 98
Plant response rating: Deadnettle ([16]; 16 g ai/ha): 95
Plant response rating: Deadnettle ([16]; 62 g ai/ha): 98
Plant response rating: Deadnettle ([16]; 125 g ai/ha): 100
Plant response rating: Russian Thistle ([17]; 31 g ai/ha): 80
Plant response rating: Russian Thistle ([17]; 16 g ai/ha): 80
Plant response rating: Russian Thistle ([17]; 62 g ai/ha): 90
Plant response rating: Russian Thistle ([17]; 125 g ai/ha): 90
Plant response rating: Ryegrass, Italian ([18]; 31 g ai/ha): 0
Plant response rating: Ryegrass, Italian ([18]; 16 g ai/ha): 0
Plant response rating: Ryegrass, Italian ([18]; 62 g ai/ha): 10
Plant response rating: Ryegrass, Italian ([18]; 125 g ai/ha): 10
